Data published in paper PMC6325200, “Effects of Microplate Type and Broth Additives on Microdilution MIC Susceptibility Assays” (Antimicrobial Agents and Chemotherapy, 2018).
≈ marks a conversion by molar mass, not a printed value.

Assays:
[1] = system: A. baumannii ATCC 19606; test: microbe, parasite or virus in culture; conditions: Acinetobacter baumannii, n = 2
In short: (§1)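 MH broth with or without Tween received a 40-fold dilution of each culture, held at 37°C for 2–3 h. Twofold dilution series of the compounds and standard antibiotics are run in 96-well plates.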

[2] = system: K. pneumoniae ATCC 13883; test: microbe, parasite or virus in culture; conditions: Klebsiella pneumoniae, n = 2
In short: as §1

[3] = system: P. aeruginosa ATCC 10145; test: microbe, parasite or virus in culture; conditions: Pseudomonas aeruginosa, n = 2
In short: as §1

[4] = system: E. coli ATCC 25922; test: microbe, parasite or virus in culture; conditions: n = 2
Protocol: A positive control of a row of just the bacteria and a negative control of only the medium were included for every plate tested.
The compounds along with standard antibiotics were serially diluted 2-fold across the 96-well plates. […] A sample of each culture was then diluted 40-fold in fresh MH broth (in presence and absence of Tween) and incubated at 37°C for 2 to 3 h.
For experiments in the presence of surfactant, 2% beractant (25 mg/ml) was added to the mid-log-phase cultures and mixed gently and added to all the 96-well plates. For experiments in the presence of serum, a mixture of 50% of human serum along with 50% MHB was prepared and used throughout the experiment.

[5] = system: E. coli; conditions: literature value; cited from earlier work

## CC1(C)S[C@@H]2[C@H](NC(=O)Cc3ccccc3)C(=O)N2[C@H]1C(=O)O [Penicillin G, penicillin G]
[1]; ATCC19606, Corning NBS, MHB +T80
  MIC: > 64 µg/mL
[1]; ATCC19606, Corning NBS, MHB -T80
  MIC: > 64 µg/mL
[1]; ATCC19606, Corning PS, MHB +T80
  MIC: > 64 µg/mL
[1]; ATCC19606, Corning PS, MHB -T80
  MIC: > 64 µg/mL
[1]; ATCC19606, Corning TC, MHB +T80
  MIC: > 64 µg/mL
[1]; ATCC19606, Corning TC, MHB -T80
  MIC: > 64 µg/mL
[2]; ATCC13883, Corning NBS, MHB +T80
  MIC: > 64 µg/mL
[2]; ATCC13883, Corning NBS, MHB -T80
  MIC: > 64 µg/mL
[2]; ATCC13883, Corning PS, MHB +T80
  MIC: > 64 µg/mL
[2]; ATCC13883, Corning PS, MHB -T80
  MIC: > 64 µg/mL
[2]; ATCC13883, Corning TC, MHB +T80
  MIC: > 64 µg/mL
[2]; ATCC13883, Corning TC, MHB -T80
  MIC: > 64 µg/mL
[3]; ATCC10145, Corning NBS, MHB +T80
  MIC: > 64 µg/mL
[3]; ATCC10145, Corning NBS, MHB -T80
  MIC: > 64 µg/mL
[3]; ATCC10145, Corning PS, MHB +T80
  MIC: > 64 µg/mL
[3]; ATCC10145, Corning PS, MHB -T80
  MIC: > 64 µg/mL
[3]; ATCC10145, Corning TC, MHB +T80
  MIC: > 64 µg/mL
[3]; ATCC10145, Corning TC, MHB -T80
  MIC: > 64 µg/mL
[4]; Corning PS plate, MHB −T80, no additive
  MIC: 32 to 64 µg/mL
[4]; Escherichia coli, ATCC25922, 24 h, Corning NBS, MH + 2% LHB, 2% LS
  MIC: 32 to 64 µg/mL
[4]; Escherichia coli, ATCC25922, 24 h, Corning NBS, MH + 2% LHB, 50% HS
  MIC: 32 to 64 µg/mL
[4]; Escherichia coli, ATCC25922, 24 h, Corning NBS, MH + 2% LHB, no additive
  MIC: 32 to 64 µg/mL
[4]; Escherichia coli, ATCC25922, 24 h, Corning NBS, MH + T80, 2% LS
  MIC: 32 µg/mL
[4]; Escherichia coli, ATCC25922, 24 h, Corning NBS, MH + T80, 50% HS
  MIC: 32 to 64 µg/mL
[4]; Escherichia coli, ATCC25922, 24 h, Corning PS, MH + 2% LHB, 2% LS
  MIC: 32 to 64 µg/mL
[4]; Escherichia coli, ATCC25922, 24 h, Corning PS, MH + 2% LHB, no additive
  MIC: 64 µg/mL
[4]; Escherichia coli, ATCC25922, 24 h, Corning PS, MH + T80, 2% LS
  MIC: 32 to 64 µg/mL
[4]; Escherichia coli, ATCC25922, 24 h, Corning PS, MH + T80, 50% HS
  MIC: 64 µg/mL
[4]; Escherichia coli, ATCC25922, 24 h, Corning TC, MH + 2% LHB, 2% LS
  MIC: 32 to 64 µg/mL
[4]; Escherichia coli, ATCC25922, 24 h, Corning TC, MH + 2% LHB, 50% HS
  MIC: 32 to 64 µg/mL
[4]; Escherichia coli, ATCC25922, 24 h, Corning TC, MH + 2% LHB, no additive
  MIC: 64 µg/mL
[4]; Escherichia coli, ATCC25922, 24 h, Corning TC, MH + T80, 2% LS
  MIC: 32 to 64 µg/mL
[4]; Escherichia coli, ATCC25922, 24 h, Corning TC, MH + T80, 50% HS
  MIC: 64 µg/mL
[4]; Escherichia coli, ATCC25922, 24 h, Trek PS, MH + 2% LHB, 2% LS
  MIC: 32 µg/mL
[4]; Escherichia coli, ATCC25922, 24 h, Trek PS, MH + 2% LHB, 50% HS
  MIC: 32 µg/mL
[4]; Escherichia coli, ATCC25922, 24 h, Trek PS, MH + 2% LHB, no additive
  MIC: 32 µg/mL
[4]; Escherichia coli, ATCC25922, 24 h, Trek PS, MH + T80, 2% LS
  MIC: 32 µg/mL
[4]; Escherichia coli, ATCC25922, 24 h, Trek PS, MH + T80, 50% HS
  MIC: 32 µg/mL
[4]; Escherichia coli, ATCC25922, Corning NBS plate, MHB +0.002% T80, no further additive
  MIC: 64 µg/mL (≈ 191 µM)
[4]; Escherichia coli, ATCC25922, Corning NBS plate, MHB −T80, no additive
  MIC: 64 µg/mL (≈ 191 µM)
[4]; Escherichia coli, ATCC25922, Corning NBS, MH, 2% LS
  MIC: 64 µg/mL (≈ 191 µM)
[4]; Escherichia coli, ATCC25922, Corning NBS, MH, 50% HS
  MIC: 64 µg/mL (≈ 191 µM)
[4]; Escherichia coli, ATCC25922, Corning PS plate, MHB +0.002% T80, no further additive
  MIC: 64 µg/mL (≈ 191 µM)
[4]; Escherichia coli, ATCC25922, Corning PS plate, MHB −T80, no additive
  MIC: 32 to 64 µg/mL (≈ 95.7 to 191 µM)
[4]; Escherichia coli, ATCC25922, Corning PS, MH, 50% HS
  MIC: 64 µg/mL (≈ 191 µM)
[4]; Escherichia coli, ATCC25922, Corning TC plate, MHB +0.002% T80, no further additive
  MIC: 64 µg/mL (≈ 191 µM)
[4]; Escherichia coli, ATCC25922, Corning TC plate, MHB −T80, no additive
  MIC: 32 µg/mL (≈ 95.7 µM)
[4]; Escherichia coli, ATCC25922, Corning TC, MH, 2% LS
  MIC: 64 µg/mL (≈ 191 µM)
[4]; Escherichia coli, ATCC25922, Corning TC, MH, 50% HS
  MIC: 64 µg/mL (≈ 191 µM)
[4]; Escherichia coli, ATCC25922, Nunc PS plate, MHB +0.002% T80
  MIC: 64 µg/mL (≈ 191 µM)
[4]; Escherichia coli, ATCC25922, Nunc PS plate, MHB −T80
  MIC: 32 µg/mL (≈ 95.7 µM)
[4]; Escherichia coli, ATCC25922, Nunc U TC plate, MHB +0.002% T80
  MIC: 64 µg/mL (≈ 191 µM)
[4]; Escherichia coli, ATCC25922, Nunc U TC plate, MHB −T80
  MIC: 32 µg/mL (≈ 95.7 µM)
[4]; Escherichia coli, ATCC25922, Nunc flat TC plate, MHB +0.002% T80
  MIC: 64 µg/mL (≈ 191 µM)
[4]; Escherichia coli, ATCC25922, Nunc flat TC plate, MHB −T80
  MIC: 32 to 64 µg/mL (≈ 95.7 to 191 µM)
[4]; Escherichia coli, ATCC25922, Trek PS plate, MHB +0.002% T80, no further additive
  MIC: 32 to 64 µg/mL (≈ 95.7 to 191 µM)
[4]; Escherichia coli, ATCC25922, Trek PS plate, MHB −T80, no additive
  MIC: 64 µg/mL (≈ 191 µM)
[4]; Escherichia coli, ATCC25922, Trek PS, MH, 2% LS
  MIC: 64 µg/mL (≈ 191 µM)
[4]; Trek PS plate, MHB +0.002% T80, no further additive
  MIC: 32 to 64 µg/mL
[5]
  MIC (literature): 16–64 ([71]) µg/ml
